We go through four molecules from US7192922B2, “Method of treating left ventricular dysfunction” (Allegheny-Singer Research Institute, priority 2002, dated 2007).

Like-named read-outs stand apart in the source and are kept apart here.

The test system of data set [1] is normal dogs and dogs with advanced dilated cardiomyopathy. As to the kind of experiment: Acute graded infusion, hemodynamic effects in conscious chronically instrumented dogs. Format: in vivo, dog. The conditions noted are these: for effects on left ventricular pressure, left ventricular dP/dt, cardiac output, heart rate: graded infusions for ten minutes, six normal dogs and six dogs with advanced DCM. From the text:
FIGS. 2a–2d show the dose response to rGLP-1 in normal conscious dogs and conscious dogs with advanced DCM compared to the response to the sympathomimetic, dobutamine.
FIG. 1 illustrates characteristic instrumentation of conscious, chronically instrumented dogs studied in the laboratory. Under sterile surgical technique, the animals are instrumented as indicated and allowed to recover fully from their surgery. At the time, they are taught to lie quietly on the experimental table before study. To determine if acute GLP-1 (7–36 amide) infusion is associated with hemodynamic effects in conscious chronically instrumented dogs, graded infusions for ten minutes at doses of 1.25, 2.5, 5, 10 and 20 pmol/kg/min in six normal dogs and in six dogs with advanced dilated cardiomyopathy were studied. The response of the graded infusion to the classic iontopic agent, Dobutamine, (2.5, 5, 7.5, 10 and 15 μ/kg/min.) was compared. […] Nikolaidis, L A, Hentosz, T, Doverspike, A, et al., “Catecholamine stimulation is associated with impaired myocardial O2 utilization in heart failure,” Cardiovas. Res., 2002;53:392–404, incorporated by reference herein.

For a further data set, the system named is normal dogs. Kind of data set: 48 hour continuous intravenous infusion, hemodynamic effect in normal dogs. Particulars: 1.5 pmol/kg/min i.v. 48 hours; five normal dogs. Format: in vivo, dog. The procedure: (§1) A 48 hour continuous intravenous infusion of GLP-1 (7–36 amide), (1.5 pmol/kg/min) in five normal dogs to determine the hemodynamic effect of chronic infusion in the absence of dilated cardiomyopathy was conducted. […] FIGS. 3–5 illustrates the effects of GLP-1 (7–36 amide) infusion (1.5 pmol/kg/min) intravenously for 48 hours in 20 conscious, chronically instrumented animals with advanced heart failure. These effects have been compared to similarly instrumented animals with advanced heart failure that received a control saline infusion of equal volume ([…]) illustrate the hemodynamic effects of chronic GLP-1 infusion in advanced DCM. GLP-1 (7–36 amide) infusion was associated with a restoration of left ventricular pressure, improvement in contractility, improvement in cardiac output, and reduction in heart rate and LVEDP. […] GLP-1 was associated with restoration of endothelial dependent vaso dilatation response to acetylcholine (FIG. 7). […] GLP-1 had little effect on increased plasma insulin levels in the setting of euglycemia.

Data set [2] relates to conscious dogs with advanced DCM. As to the kind of experiment: 48 hour intravenous infusion, hemodynamics and myocardial sympathetic activity in conscious dogs with advanced heart failure (DCM). Format: in vivo, dog.
Text: FIGS. 3a–3d show the effects of r GLP-1 on LV systolic pressure, LV end diastolic pressure, LV dP/dt, and heart rate in conscious dogs with advanced DCM compared to saline control.
FIGS. 4a–4d show the effects of rGLP-1 on cardiac output, stroke volume, LV ejection fraction, systemic vascular resistance in conscious dogs with advanced DCM compared to saline control.
FIGS. 5a and 5b show the effects of rGLP-1 on stroke work and LV external efficiency in conscious dogs with advanced DCM compared to saline control.
FIGS. 6a and 6b show the effects of rGLP-1 on transmyocardial norepinephrine uptake as a reflection of sympathetic drive to the myocardium in conscious dogs with advanced DCM compared to saline controls.
as §1

In data set [3] the test system is myocardial substrate uptake. As to the kind of experiment: Myocardial substrate uptake and metabolic parameters in dogs with advanced DCM, 48 h infusion (Table 1). Format: in vivo, dog. Particulars: for Glucose myocardial uptake / Lactate myocardial uptake / NE (transmyocardial norepinephrine uptake) / NEFA myocardial uptake: GLP-1 group (n = 9); for Insulin/Glucagon: ratio insulin (pmol/L) to glucagon (pg/ml), GLP-1 group. The procedure: as §1

In data set [4] the test system is endothelial dependent coronary vasodilation. As to the kind of experiment: Coronary flow responses to acetylcholine and nitroglycerin in conscious dogs with advanced DCM after 48-hour infusion. Format: in vivo, dog. The procedure: FIGS. 7a and 7b show the effects of rGLP-1 on endothelial dependent coronary vasodilation in conscious dogs. Advanced DCM was associated with impaired coronary flow responses to acetylcholine. These responses were restored following 48-hour infusion of rGLP-1. The response to the non-endothelial dependent vasodilator, nitroglycerin was unaffected.
as §1

In data set [5] the test system is patients with large myocardial infarction (LVEF<35%). Kind of data set: 72 hour continuous intravenous infusion in adults with severe acute myocardial infarction, LV function. Format: in vivo, human. The conditions noted are these: 1.5 pmol/kg/min i.v. 72 hours after percutaneous coronary intervention; ten adults vs eleven on standard care. The procedure:
The effects of continuous intravenous infusion of GLP-1 (1.5 pmol/kg/min) intravenously for 72 hours was studied in ten adults presenting with severe acute myocardial infarction. These were compared to eleven adults with similar large myocardial infarction (LVEF<35%) all of whom underwent percutaneous coronary intervention and subsequently were treated for 72 hours thereafter.

In a further data set the test system is plasma insulin. The conditions noted are these: cited from earlier work; for plasma insulin levels: GIP 2.0, GLP-1 1.5 pmol·kg−1·min−1.
A further data set has as its system restrained rats. Particulars: rat, in vivo, sc; cited from earlier work.
The mark [6] stands for this setting: 1.5 pmol/kg/min i.v. 48 hours, vs saline.
[7] abbreviates: Baseline (before CHF and infusion).
[8] abbreviates: advanced DCM, vs saline controls.
Where [9] appears, read: hyperglycemia 10.4 mmol/l, hyperglycemia alone ~280 pmol/l.
[10] abbreviates: hyperglycemia 187 mg/dl, hyperglycemia alone 47 μU/ml.

Consider `CC(CCc1ccc(O)cc1)NCCc1ccc(O)c(O)c1` (centres unmarked) [Dobutamine], for which the “hemodynamic effects of graded infusion, heart failure” value in data set [1] (dogs with heart failure (advanced DCM), graded infusion) is on record as “de-sensitized effects”. Further, the “hemodynamic effects of graded infusion, normal dogs” value in data set [1] (normal dogs, graded infusion) was “predictable effects”.
As to GLP-1 (7–36 amide), the “effects on left ventricular pressure, left ventricular dP/dt, cardiac output, heart rate” value in data set [1] is listed as “no significant, dose related effects”. Further, in data set [1] (listed as rGLP-1), the “effects on left ventricular pressure, left ventricular dP/dt, cardiac output, heart rate” value is reported as “no acute hemodynamic effects”. Also, the “hemodynamic effects of chronic infusion” value in the data set with normal dogs is listed as “no significant hemodynamic effects”. For the same molecule, in data set [2] (setting [6]), the LVEDP entry was “reduction”, the cardiac output entry was “improvement”, the contractility result is given as “improvement” and the heart rate entry is recorded as “reduction”. Besides, the left ventricular pressure entry in data set [2] (setting [6]) is “restoration”. For the same molecule, in data set [2] (infusion compared to saline), the myocardial sympathetic activity entry is reported as “suppression”. Moreover, in data set [3] (24 hrs of infusion), the Glucose myocardial uptake worked out at 8.72 ± 1.05 µmol/min, the Lactate myocardial uptake turned out to be 3.61 ± 0.62 µmol/min, the “NE (transmyocardial norepinephrine uptake)” value is given as 26.3 ± 3.1 pmol/min and the NEFA myocardial uptake is 4.53 ± 0.58 µmol/min. For the same molecule, in data set [3] (48 hrs of infusion), the Glucose myocardial uptake is 7.00 ± 0.94 µmol/min, the Lactate myocardial uptake worked out at 4.04 ± 0.74 µmol/min, the “NE (transmyocardial norepinephrine uptake)” value is 30.5 ± 4.9 pmol/min and the NEFA myocardial uptake stood at 5.16 ± 0.73 µmol/min. Besides, the Insulin/Glucagon in data set [3] (48 hrs of infusion) turned out to be 3.12 ± 0.24. Also, in data set [3] (setting [7]), the Glucose myocardial uptake was 6.67 ± 1.22 µmol/min, the Lactate myocardial uptake turned out to be 4.78 ± 1.04 µmol/min, the “NE (transmyocardial norepinephrine uptake)” value came to 30.9 ± 4.8 pmol/min and the NEFA myocardial uptake was determined as 5.23 ± 0.83 µmol/min. For the same molecule, in data set [3] (setting [7]), the Insulin/Glucagon is 1.36 ± 0.21. Moreover, in data set [3] (CHF (before infusion)), the Glucose myocardial uptake was 3.44 ± 0.81 µmol/min, the Lactate myocardial uptake is 2.64 ± 0.91 µmol/min, the “NE (transmyocardial norepinephrine uptake)” value is recorded as 18.7 ± 3.6 pmol/min and the NEFA myocardial uptake stood at 3.17 ± 0.61 µmol/min. Also, the Insulin/Glucagon in data set [3] (CHF (before infusion)) is given as 1.79 ± 0.29. Moreover, in data set [3] (setting [8]), the “myocardial glucose uptake” value was “enhanced” and the “ratio of insulin (pmol/L) to glucagon (pg/ml)” value was “significant increase”. Further, in data set [3] (setting of euglycemia, advanced DCM), the plasma insulin levels entry was “little effect”. Also, in data set [4], the “endothelial dependent vasodilatation (coronary flow) response to acetylcholine” value is given as “restoration” and the “response to the non-endothelial dependent vasodilator nitroglycerin” value is “unaffected”. Besides, in data set [4] (listed as rGLP-1), the “endothelial dependent vasodilatation (coronary flow) response to acetylcholine” value is “restored”. Besides, the left ventricular function result in data set [5] is “improvement”. Also, the plasma insulin levels in the data set on plasma insulin (setting [9]) is ~2000 pmol/L. The plasma insulin levels in the data set with plasma insulin (setting [10]) is recorded as 333 μU/ml. Moreover, the “relative potency as incretin” value with plasma insulin (hyperglycemia, infusion) is given as “more potent than GIP”.
In the case of exendin-4 [excendin 4], the “blood pressure and heart rate” value with restrained rats is “hypertension and tachycardia”.
As to “glucose-dependent insulinotropic polypeptide [GIP]”, the plasma insulin levels with plasma insulin (setting [9]) is ~900 pmol/L; in the data set on plasma insulin (setting [10]), 150 μU/ml. In addition, the “insulinotropic action during euglycemia” value with plasma insulin (normal subjects, euglycemia) is on record as “not”.
